The text below walks through data of publication PMC4796321, “Type 1 diabetes vaccine candidates promote human Foxp3^+Treg induction in humanized mice” (Nature Communications, 2016).

pIC50: −log10 of the molar value.

This test deals with HLA-DQ8. Description: Competitive in vitro HLA-DQ8 binding assay. Also noted: species or system human. Particulars: competition with FITC-labelled GAD65 253-265 R255F peptide (10 μM), thrombin-cleaved HLA-DQ8 monomers 0.4 μM, 48 h at 37 °C; one-site competitive binding fit. The method, then: Competitive binding assays were carried out according to previously established procedures[30][67][68]: HLA-DQ8 monomers were kindly provided by R.A.W. from the NIH Tetramer Core Facility (Atlanta, USA). The CLIP peptide of HLA-DQ8 molecules was cleaved off by incubation with thrombin (Novagen) for 2 h (ref. [69]).
Specifically, a FITC-labelled GAD65 253-265^R255F peptide (IAFFKMFPEVKEK) was used as an indicator peptide (10 μM) for the binding reaction together with thrombin-cleaved HLA-DQ8 monomers (0.4 μM) and increasing concentrations of competitor peptides (natural insulin B:9-23, ins.mim.1,2,3,4, MP185-204). The MP185-204 peptide ([…]) was used as a positive DQ8-binding control. The indicator peptide incubated with DQ8 monomers in the absence of competitor peptide was used as positive control. For background analysis the binding reaction was performed without HLA-DQ8 monomers. The binding reaction was incubated for 48 h at 37 °C. Assays were then captured using anti-DQ antibody-coated plates (SPV-L3, Abcam, 15 μg ml^−1). Detection was performed using anti-FITC HRP (Abcam, 1:1,000) antibodies in combination with TMB substrate (BD Biosciences) and subsequent analysis with the Epoch plate reader (Biotech) at 450 and 405 nm. […]

As usually defined, the pIC50 is the IC50 on a negative log10 scale, so that one unit is a factor of ten.

Take “ins.mim.1: novel human insulin-B-chain-10-23 mimetope with 14E, 21G and 22E”: the pIC50 is 5.49.

Take “ins.mim.2: insulin-B:10-23 peptide variant with 21G and 22E, previously established”: the pIC50 is 5.20.
